Laboratory results from patent publication US20030216361A1, “Therapeutic compositions effective against gram positive bacteria” (priority 2000, published 2003).
Values after ≈ are worked out from the molar mass of the structure shown. Read-outs that look alike come from different tables or passages of the source.

Tests used:
[1] = system: Methicillin-resistant Staphylococcus aureus, clinical isolate; experiment: Effect of pH on broth macrodilution MICs; format: cell-based
[2] = system: Vancomycin-resistant Enterococcus faecalis, clinical isolate; experiment: Effect of pH on broth macrodilution MICs; format: cell-based
[3] = system: Staphylococcus aureus ATCC 29213; experiment: Disk diffusion susceptibility testing
[4] = system: Enterobacter cloacae ATCC 13047; experiment: Disk diffusion susceptibility testing
[5] = system: Methicillin-resistant Staphylococcus aureus; experiment: Broth macrodilution MIC and MBC, clinical isolates
[6] = system: Penicillin-resistant Streptococcus pneumoniae; experiment: Broth macrodilution MIC and MBC, clinical isolates
Bacillus subtilis = experiment: Broth macrodilution MIC and MBC, clinical isolates; conditions: 4 strains
B. circulans = experiment: Broth macrodilution MIC and MBC, clinical isolates; conditions: clinical isolate, 1 strain
[7] = system: S. epidermidis Presque Isle 4653; experiment: Broth macrodilution MIC and MBC, reference strains; conditions: Staphylococcus epidermidis
[8] = system: Micrococcus luteus Presque Isle 456; experiment: Broth macrodilution MIC and MBC, reference strains
[9] = pH 6, range of 3 determinations
[10] = pH 7, range of 3 determinations
[11] = pH 8, range of 3 determinations

In the case of `CC(=O)O[C@H]1CC[C@@]2(C)[C@@H](CC[C@@H]3[C@@H]2CC[C@]2(C)[C@@H](NC(=O)[C@@H]4CCCN4)CC[C@@H]32)C1`, the MIC Range [1, 9] is reported as 16 µg/mL (≈ 37.2 µM), the MIC Range [1, 10] is reported as 8 µg/mL (≈ 18.6 µM) and the MIC Range [1, 11] is reported as 4 µg/mL (≈ 9.29 µM). The MIC Range [2, 9] was 32 µg/mL (≈ 74.3 µM), the MIC Range [2, 10] was 8 µg/mL (≈ 18.6 µM) and the MIC Range [2, 11] was 4 to 8 µg/mL. The MIC [3] was 12.5-25 μg/disk, the MIC [4] was greater than 100 μg/disk and the MIC50 ([5]; Staphylococcus aureus) was 8 µg/mL (≈ 18.6 µM). It also gave an MIC90 ([5]; Staphylococcus aureus) of 8 µg/mL (≈ 18.6 µM), an MBC ([5]; Staphylococcus aureus, read-out: MBC 50%) of 16 µg/mL (≈ 37.2 µM) and an MBC ([5]; Staphylococcus aureus, read-out: MBC 90%) greater than 64 µg/mL. The “MIC Range” value ([5]; clinical isolates, 22 strains) was 4 to 8 µg/mL, the “share of strains with MBC/MIC ratios ≦2” value ([5]; methicillin-resistant S. aureus) was 73% and the MIC50 ([6]; Streptococcus pneumoniae) was 16 µg/mL (≈ 37.2 µM). For the same molecule, the MIC90 ([6]; Streptococcus pneumoniae) was 16 µg/mL (≈ 37.2 µM), the MBC ([6]; Streptococcus pneumoniae, read-out: MBC 50%) was 16 µg/mL (≈ 37.2 µM) and the MBC ([6]; Streptococcus pneumoniae, read-out: MBC 90%) was 32 µg/mL (≈ 74.3 µM). For the same molecule, the “MIC Range” value ([6]; clinical isolates, 35 strains) was 8 to 32 µg/mL, the “share of strains with MBC/MIC ratios ≦2” value ([6]; penicillin-resistant S. pneumoniae) was 88% and the “MIC Range” value (Bacillus subtilis) was 8 µg/mL (≈ 18.6 µM). The “MBC Range” value (B. circulans) was greater than 64 µg/mL, the “MIC Range” value (B. circulans) was 16 µg/mL (≈ 37.2 µM) and the MBC [7] was 32 µg/mL (≈ 74.3 µM). The MIC [7] was 8 µg/mL (≈ 18.6 µM), the MBC [8] was 64 µg/mL (≈ 149 µM) and the MIC [8] was 8 µg/mL (≈ 18.6 µM).
